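A five-concentration, 48-hour dose response in 96-well plates underlies each endpoint, interpolated linearly between surrounding concentrations. At the GI50, growth is halved.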 Calls of active or inactive are those of the source. Cut-off read from the data, not from the text of the source: active = GI50 up to about 1.1 µM and inactive = higher.
How the values were obtained:
Test in all cases: growth of human tumour cells (NCI), 48 h
SK-MEL-2 = test system: SK-MEL-2
786-0 = test system: 786-0
MDA-MB-231 = test system: MDA-MB-231
MDA-MB-435 = test system: MDA-MB-435
T47D = test system: T47D
SK-MEL-5 = test system: SK-MEL-5
OVCAR-8 = test system: OVCAR-8
HCT-15 = test system: HCT-15
Hs-578T = test system: Hs-578T
COLO 205 = test system: COLO 205
HT-29 = test system: HT-29
NCI/ADR-RES = test system: NCI/ADR-RES
IGROV-1 = test system: IGROV-1
SN12C = test system: SN12C
A498 = test system: A498
OVCAR-5 = test system: OVCAR-5
LOX IMVI = test system: LOX IMVI
NCI-H522 = test system: NCI-H522
NCI-H226 = test system: NCI-H226
RXF 393 = test system: RXF 393

Compound | GI50 (SK-MEL-2) | GI50 (786-0) | GI50 (MDA-MB-231) | GI50 (MDA-MB-435) | GI50 (T47D) | GI50 (SK-MEL-5) | GI50 (OVCAR-8) | GI50 (HCT-15) | GI50 (Hs-578T) | GI50 (COLO 205) | GI50 (HT-29) | GI50 (NCI/ADR-RES) | GI50 (IGROV-1) | GI50 (SN12C) | GI50 (A498) | GI50 (OVCAR-5) | GI50 (LOX IMVI) | GI50 (NCI-H522) | GI50 (NCI-H226) | GI50 (RXF 393)
NS(=O)(=O)c1ccc(Nc2c3ccccc3nc3c(C(=O)NCCCN(CCO)CCO)cccc23)cc1 | 20.1 µM (inactive) | 19.3 µM (inactive) | 61.1 µM (inactive) | 19.6 µM (inactive) | 15.8 µM (inactive) | 14.8 µM (inactive) | 28.6 µM (inactive) | > 100 µM | 19.6 µM (inactive) | 13 µM (inactive) | 25.6 µM (inactive) | > 100 µM (inactive) | 19.4 µM (inactive) | 16.4 µM (inactive) | 47.9 µM (inactive) | 24.1 µM (inactive) | 18.8 µM (inactive) | 18.2 µM (inactive) |  | 
CCOP(=O)(OCC)c1cc2cc(O)ccc2oc1=O |  | > 100 µM (inactive) | > 100 µM (inactive) | > 100 µM (inactive) | > 100 µM (inactive) | > 100 µM (inactive) | > 100 µM (inactive) | > 100 µM | > 100 µM (inactive) | > 100 µM (inactive) | > 100 µM (inactive) | > 100 µM (inactive) | > 100 µM (inactive) | > 100 µM (inactive) | > 100 µM (inactive) | > 100 µM (inactive) | > 100 µM (inactive) | > 100 µM (inactive) | > 100 µM (inactive) | > 100 µM (inactive)
COc1ccc(C2OC2C(=O)C23CC4CC(CC(C4)C2)C3)cc1 (stereo unspecified) |  | 46.3 µM (inactive) | 33 µM (inactive) | 48.6 µM (inactive) | 14.4 µM (inactive) | 77.8 µM (inactive) | 38.3 µM (inactive) | 41.4 µM | 13.6 µM (inactive) |  | 13.4 µM (inactive) | > 100 µM (inactive) | 71.1 µM (inactive) | 36.8 µM (inactive) | > 100 µM (inactive) | > 100 µM (inactive) | 19.1 µM (inactive) | 45.5 µM (inactive) | > 100 µM (inactive) | 37.6 µM (inactive)
O=C(C/N=C(\CN(c1ccccc1)c1ccccc1)Oc1c(Cl)cc(Cl)cc1Cl)N1c2ccccc2Sc2ccccc21 |  | 55.3 µM (inactive) | > 100 µM (inactive) | 34.2 µM (inactive) | 31.9 µM (inactive) | 21.4 µM (inactive) | 35.4 µM (inactive) | 32.9 µM | 50.9 µM (inactive) | 34.8 µM (inactive) | 43.3 µM (inactive) | 57.9 µM (inactive) | 28.2 µM (inactive) | 47.8 µM (inactive) |  | 30.4 µM (inactive) |  | 28.3 µM (inactive) | 24.4 µM (inactive) | 0.101 µM (active)
CNC1(C(=O)O)CC1 |  | > 100 µM (inactive) | > 100 µM (inactive) | > 100 µM (inactive) | 87.5 µM (inactive) | > 100 µM (inactive) | > 100 µM (inactive) | > 100 µM | > 100 µM (inactive) |  | > 100 µM (inactive) | > 100 µM (inactive) | > 100 µM (inactive) | > 100 µM (inactive) | > 100 µM (inactive) | > 100 µM (inactive) | > 100 µM (inactive) | > 100 µM (inactive) | > 100 µM (inactive) | > 100 µM (inactive)
O=C(CC(=O)N1N=C(N(c2ccccc2)c2ccccc2)CC1c1ccccc1)Nc1cccc(Cl)c1 (stereo unspecified) | > 100 µM (inactive) | > 100 µM (inactive) | > 100 µM (inactive) | > 100 µM (inactive) | > 100 µM (inactive) | > 100 µM (inactive) | > 100 µM (inactive) | > 100 µM | > 100 µM (inactive) | > 100 µM (inactive) | > 100 µM (inactive) | > 100 µM (inactive) | > 100 µM (inactive) | > 100 µM (inactive) |  | > 100 µM (inactive) |  | > 100 µM (inactive) | > 100 µM (inactive) | > 100 µM (inactive)
Cc1nc(-c2ccccc2)c(C)n2c1nc1ccccc12 | 25.9 µM (inactive) | 29 µM (inactive) | 31.9 µM (inactive) | 24.4 µM (inactive) | 12.6 µM (inactive) |  | 25.9 µM (inactive) | 24.2 µM | 40 µM (inactive) | 31.3 µM (inactive) | 20.8 µM (inactive) | 23.4 µM (inactive) | 30.4 µM (inactive) | 42.9 µM (inactive) | 27.2 µM (inactive) | 33.2 µM (inactive) | 30.3 µM (inactive) |  | 40.5 µM (inactive) | 25.1 µM (inactive)
O=C1c2c(ccc3c2CCCC3)CC12Cc1ccc3c(c1C2=O)CCCC3 | > 100 µM (inactive) | > 100 µM (inactive) | > 100 µM (inactive) | > 100 µM (inactive) | > 100 µM (inactive) | > 100 µM (inactive) | > 100 µM (inactive) | > 100 µM | > 100 µM (inactive) |  | > 100 µM (inactive) | > 100 µM (inactive) | > 100 µM (inactive) |  | 89.1 µM (inactive) | > 100 µM (inactive) | > 100 µM (inactive) | > 100 µM (inactive) |  | > 100 µM (inactive)
CCC1=C(c2ccc(OC)cc2)CC[C@@]2(CCNC2=O)[C@@H]1C | > 90.8 µM (inactive) | > 100 µM (inactive) | > 100 µM (inactive) | > 61.4 µM (inactive) | > 50.7 µM (inactive) | 22.1 µM (inactive) | > 100 µM (inactive) | > 100 µM | > 52.2 µM (inactive) | > 63.4 µM (inactive) | > 67.6 µM (inactive) | > 74.1 µM (inactive) | > 100 µM (inactive) | > 100 µM (inactive) | > 100 µM (inactive) | > 100 µM (inactive) | > 75 µM (inactive) | 32.4 µM (inactive) | > 100 µM (inactive) | 
COc1ccc2c(c1)N=C1CSC(c3cccc(Br)c3)N1C2 (stereo unspecified) | 17.6 µM (inactive) | 17.4 µM (inactive) | 17.8 µM (inactive) | 10.5 µM (inactive) | 24 µM (inactive) | 10.4 µM (inactive) | 23.7 µM (inactive) | 6.14 µM | 26.3 µM (inactive) | 17.4 µM (inactive) | 14.8 µM (inactive) | 6.98 µM (inactive) | 18.6 µM (inactive) | 19.5 µM (inactive) |  | 18.8 µM (inactive) | 18.5 µM (inactive) | 14.4 µM (inactive) | 22.9 µM (inactive) | 14.6 µM (inactive)
COc1cc2c3c(c1OC)C(=O)C(=O)C1=C3N(CCC1)CC2 | 48.9 µM (inactive) | 43.4 µM (inactive) | 31.3 µM (inactive) | 22 µM (inactive) | 23.2 µM (inactive) | 33 µM (inactive) | 21.5 µM (inactive) | 27.9 µM | 2.72 µM (inactive) | 10.4 µM (inactive) | 24.3 µM (inactive) | 56 µM (inactive) | 28.7 µM (inactive) | 32.4 µM (inactive) | 30.3 µM (inactive) | 52.2 µM (inactive) | 26.7 µM (inactive) | 19.7 µM (inactive) |  | 26.6 µM (inactive)
C=CCOC(=O)C[C@H](NC(=O)[C@H](Cc1ccc(O)cc1)NCC(F)(F)F)C(=O)OCC=C | 21.3 µM (inactive) | > 100 µM (inactive) | 72.9 µM (inactive) | 41.3 µM (inactive) | 23.6 µM (inactive) | 30.5 µM (inactive) | > 100 µM (inactive) | > 100 µM | 41.7 µM (inactive) | 31.8 µM (inactive) | > 100 µM (inactive) | > 100 µM (inactive) | > 100 µM (inactive) | 45 µM (inactive) |  | > 100 µM (inactive) | 65.5 µM (inactive) | 25 µM (inactive) | > 100 µM (inactive) | > 100 µM (inactive)
O=C1/C(=C/c2ccc(O)cc2)CCC1CNc1ccccc1 (stereo unspecified) |  | 6.9 µM (inactive) | 14.4 µM (inactive) | 18.7 µM (inactive) | 10.3 µM (inactive) | 16.8 µM (inactive) | 16 µM (inactive) | 5.05 µM | 21.5 µM (inactive) | 11.1 µM (inactive) | 11.5 µM (inactive) | 19 µM (inactive) | 11.3 µM (inactive) | 15 µM (inactive) | 17.9 µM (inactive) | 17.7 µM (inactive) | 8.38 µM (inactive) | 2.4 µM (inactive) | 17.9 µM (inactive) | 20.3 µM (inactive)
COc1ccc2c(c1O)-c1c(OC)c(OC)cc3c1[C@H](C2)[N+](C)(C)CC3 | > 100 µM (inactive) | > 100 µM (inactive) | > 100 µM (inactive) | > 100 µM (inactive) | > 100 µM (inactive) | > 100 µM (inactive) | > 100 µM (inactive) | > 100 µM | > 100 µM (inactive) | > 100 µM (inactive) | > 100 µM (inactive) | > 100 µM (inactive) | > 100 µM (inactive) | > 100 µM (inactive) | > 100 µM (inactive) | > 100 µM (inactive) | > 100 µM (inactive) | > 100 µM (inactive) | > 100 µM (inactive) | 
N[C@H](C(=O)O)[C@@H]1CC(Cl)=NO1 [ACIVICIN] | 4.61 µM (inactive) | 13.8 µM (inactive) | 72.6 µM (inactive) | 3.9 µM (inactive) | 7.73 µM (inactive) | 1.99 µM (inactive) | 2.18 µM (inactive) | 0.738 µM | 3.62 µM (inactive) | 5.92 µM (inactive) | 0.787 µM (active) | 4.44 µM (inactive) | 0.698 µM (active) | 3.5 µM (inactive) | 6.84 µM (inactive) | 7.71 µM (inactive) | 1.46 µM (inactive) | 4.43 µM (inactive) |  | 7.62 µM (inactive)
